Test system: beta-lactamase
Assay: In-vitro cleavage of the OSTA-1 prodrug by beta-lactamase (release of trans-cinnamaldehyde monitored by UV absorption at 285 nm)
Assay type: biochemical
Method: Cleavage of the OSTA-1 prodrug was tested in vitro by contact with a beta-lactamase in saline aqueous media.
The cleavage test is performed in physiological saline buffer (Phosphate Buffer Saline, PBS) at pH 7.0. The OSTA-1 molecule is added at a concentration of 100 microM, along with commercial beta-lactamase at a concentration of 1 unit per mL. Incubation is carried out at 37° C. The appearance of free trans-cinnamaldehyde in the medium is then monitored by UV absorption at 285 nm.
The release of the active ingredient, in this case trans-cinnamaldehyde, was monitored by UV absorption at 285 nm. The progress of the release of the prodrug molecule's active ingredient (100 microM) was observed, in the presence and absence of beta-lactamase.

COC(/C=C/c1ccccc1)N(C)C(=O)OCC1=C(C(=O)O)N2C(=O)[C@@H](NC(=O)Cc3cccs3)[C@H]2SC1 (stereo partly drawn) [OSTA-1]
cleavability by beta-lactamase (conclusion) (in vitro, saline aqueous media): cleavable by beta-lactamase and releases the active ingredient | spontaneous release of the active ingredient in the absence of beta-lactamase (prodrug 100 microM, PBS pH 7.0, 37° C., no beta-lactamase, UV absorption at 285 nm): no spontaneous release | release of the active ingredient (trans-cinnamaldehyde) in the presence of beta-lactamase (prodrug 100 microM, commercial beta-lactamase 1 unit per mL, PBS pH 7.0, 37° C., UV absorption at 285 nm, after two hours): released in significant quantities
